Test results taken from patent publication US20030114504A1, “Compositions and methods for the treatment of cancer” (priority 2001, published 2003).

Tests used:
A2780S cells [1] = assay: Inhibition of tumor cell proliferation in vitro, 72 hour treatment; format: cell-based; conditions: Homo sapiens
[2] = system: A2780 ovarian carcinoma cells; assay: Clonogenic growth assay and drug combination studies; format: cell-based, human; conditions: clonogenic assays, single agent
A2780S cells [3] = assay: Cell cycle analysis by flow cytometry; format: cell-based, human; conditions: 170 nM
Protocol: Log phase A2780s cells were plated overnight in 6 well plates. […] Cells were harvested by trypsinization followed by centrifugation. Cell pellets were then resuspended by vortexing in 1 ml 80% methanol and fixed overnight at −20° C. Cells were recovered by centrifugation and washed two times with 1 ml of PBS. Cells were resuspended in 1 ml PBS, 2% FBS, 0.25% Triton X-100 and incubated at 4° C. for 10 minutes. Cells were again recovered by centrifugation and resuspended in 50 μl PBS, 2% FBS, 0.1% Triton X-100. Anti-Phospho-Threonine Proline antibody (IgM, New England Biolabs #9391S) was added and the cells were incubated for 30 minutes at 4° C. Cells were washed with PBS, 2% FBS, 0.1% Triton X-100 and resuspended in 50 μl PBS, 2% FBS, 0.1% Triton X-100. FITC-anti-Mouse antibody (Pharmingen #12064D) was added and incubated for 30 minutes at 4° C. in the dark. Cells were washed with PBS, 2% FBS, 0.1% Triton X-100 and resuspended in Propidium Iodide/RNase in PBS (10 μg/ml PI, 100 μg/ml RNase (DNase free)) and incubated at 37° C. for 30 minutes in the dark. Samples were analyzed using a flow cytometer.

[4] = system: P388 mouse leukemia, Cyclin E transgenic mouse breast carcinoma, A2780, Colo205 and A431 tumor models; assay: Multiple murine and human tumor models in vivo; set-up: species or system mice
From the text: The following tumors were used: A2780 human ovarian carcinoma, Br-cycE murine breast carcinoma, A431 human squamous cell carcinoma and Colo 205 colorectal carcinoma.
Compound 1 was compared head to head with flavopiridol in each of these models.

[5] = system: Colo205 human colon carcinoma; assay: Colo205 xenograft in nude mice; conditions: for tumor regression: at MTD; for antitumor activity (in words): head-to-head at MTD
Protocol: (§1) In vivo Antitumor Testing
(§2) Paclitaxel was dissolved in a 50/50 mixture of ethanol and Cremophor® and stored at 4° C.; final dilution of paclitaxel was obtained immediately before drug administration with NaCl 0.9%. 5-FU was dissolved in normal saline (NaCl 0.9%). […] The volume of all compounds injected was 0.01 ml/g of mouse weight.
(§3) Solid Tumor Xenografts in Nude Mice.
(§4) All solid tumors were maintained in Balb/c nu/nu nude mice. Tumors were propagated as subcutaneous transplants using tumor fragments obtained from donor mice. All tumor implants for efficacy testing were subcutaneous (sc).
(§5) The required number of animals needed to detect a meaningful response were grouped at the start of the experiment and each was given a subcutaneous implant of a tumor fragment (˜50 mg) with a 13-gauge trocar. For treatment of early-stage tumors, the animals were again grouped before distribution to the various treatment and control groups. For treatment of animals with advanced-stage disease, tumors were allowed to grow to the pre-determined size window (animals with tumors outside the range were excluded) and animals were evenly distributed to various treatment and control groups. Treatment of each animal was based on individual body weight. Treated animals were checked daily for treatment related toxicity/mortality. Each group of animals was weighed before the initiation of treatment (Wt1) and then again following the last treatment dose (Wt2). The difference in body weight (Wt2-Wt1) provides a measure of treatment-related toxicity.
(§6) Tumor response was determined by measurement of tumors with a caliper twice a week, until the tumors reach a predetermined “target” size of 1 g. Tumor weights (mg) were estimated from the Formula: […]
(§7) Antitumor activity was evaluated at the maximum tolerated dose (MTD) which is defined as the dose level immediately […] which excessive toxicity (i.e. more than one death) occurred. […] When death occured, the day of death was recorded.
(§8) Tumor response end-point was expressed in terms of tumor growth delay (T-C value), defined as the difference in time (days) required for the treated tumors (T) to reach a predetermined target size compared to those of the control group ®.
(§9) To estimate tumor cell kill, the tumor volume doubling time (TVDT) was first calculated with the Formula:
(§10) TVDT=Median time (days) for control tumors to reach target size−Median time (days) for control tumors to reach half the target size

in vivo = conditions: Balb/c nu/nu nude, mouse, in vivo
Protocol: as §1, §2, §3, §4, §5, §6, §7, §8, §9, §10

[6] = system: A2780 human ovarian carcinoma; assay: A2780 xenograft in nude mice; format: in vivo
[7] = system: PARP cleavage in A2780S cells; assay: PARP cleavage by western blot; format: cell-based, human; conditions: 24 hour time point
Protocol: FIG. 3. […]. Protein extracts were then examined by western blot using an anti-PARP antibody (Clonetech). The arrow signifies caspase cleaved PARP protein fragment.
Compound treated A2780S cells were harvested at approximately 70% confluence and total protein was prepared by lysing the cells in RIPA [50 mM Tris (pH8), 150 mM NaCl, 1% NP-40, 0.5% Na-deoxycolate, 0.1% SDS, 0.1% Na3VO4, 0.1 mM NaF, 10 mM β-glycerophosphate, plus Complete® protease inhibitors (Boehringer Mannhiem)] buffer. Cell pellets were resuspended at a density of<2×10^7 cells/ml and incubated for 20 minutes on ice followed by a high speed 14,000 rpm centrifugation. The protein supernatant was then removed from the debris and protein content was quantitated using the Micro-BCA assay (Pierce). Treated extracts (25 microgram/lane) were then separated using a 10% SDS-polyacrylamide gel (10.5×14 cm). Proteins were then transferred from the gel to PVDF-membrane (Millipore) by exposure to […] in a semi-dry blotting apparatus (Hoeffer). PVDF protein blots were then blocked with 5% non-fat milk in TTBS (0.1% Tween 20 in Tris-buffered saline). […]. The blots were then washed three times with TTBS and developed with ECL-plus western blotting detection system (Amersham).

## CC(C)(C)c1cnc(CSc2cnc(NC(=O)C3CCNCC3)s2)o1 [Compound 1, N-[5-[[[5-(1,1-Dimethylethyl)-2-oxazolyl]methyl]thio]-2-thiazolyl]-4-piperidinecarboxamide]
A2780S cells [1]
  IC90: 170 nM
[2]
  drug exposure sufficient to elicit a maximal anti-proliferative response: 8 h
A2780S cells [3]; 8 hr. exposure
  % Apo (sub-G1 cells by DNA staining): 6%
  % G1: 56%
  % G2: 22%
  % M: 1%
  % S: 15%
A2780S cells [3]; 24 hr. exposure
  % Apo (sub-G1 cells by DNA staining): 32 ± 12%
  % G1: 45%
  % G2: 9.7%
  % M: 0.3%
  % S: 8%
[4]
  anti-tumor activity in vivo: broad spectrum anti-tumor activity
[5]; MTD of 36 mg/kg, IP, QD×8
  log cell kill (LCK): > 2.0 LCK
[5]
  tumor regression: tumor regression
  antitumor activity (in words): marked antitumor activity
In vivo; ip
  MTD at 8 days: 36 mg/kg
[6]; IP
  schedule dependence of activity: qdx8=qdx14>>>q2dx5=q4dx3
[6]; dosed IP, qdx8 schedule, multiple dose levels
  efficacy: curative efficacy
[6]; dosed orally, qdx8 schedule
  efficacy: modest efficacy
[6]; single 24 hour continuous infusion at the MTD
  efficacy: curative efficacy
[7]
  PARP cleavage (caspase activation): Extensive cleavage

## O=c1[nH]cc(F)c(=O)[nH]1 [Compound 5-FU, 5-fluorouracil, reference compound]
[5]
  tumor regression: failed to achieve tumor regression
  antitumor activity (in words): considerably less active

## CC(=O)O[C@H]1C(=O)[C@@]2(C)[C@H]([C@H](OC(=O)c3ccccc3)[C@]3(O)C[C@H](OC(=O)[C@H](O)[C@@H](NC(=O)c4ccccc4)c4ccccc4)C(C)=C1C3(C)C)[C@]1(OC(C)=O)CO[C@@H]1C[C@@H]2O [Paclitaxel, paclitaxel, reference compound]
[5]
  antitumor activity (in words): comparable to Compound 1
In vivo; iv
  MTD: 36 mg/kg
